These results are taken from patent US20050065086A1, “Use of peptide-drug conjugation to reduce inter-subject variability of drug serum levels” (New River Pharmaceuticals Inc., priority 2002, published 2005).

The structures appear in SMILES notation.

Data set [1] deals with Caco-2 Cells. The settings on record: unlike rapid and efficient in vivo absorption; cited from earlier work.
The next data set in a line: physchem. The class given is physicochemical. The following applies: pH 7.4, aqueous buffer. An excerpt: The enhanced absorption may be explained by the use of an additional transport mechanism, such as one of the peptide transporters.
Data set [2] concerns Caco-2 Cells. The following applies: cited from earlier work.
For data set [3] the following is noted: after oral administration (Gidal and coworkers); cited from earlier work.

As to `N[C@@H](Cc1ccc(O)c(O)c1)C(=O)O` [L-dopa], the “transport by Caco-2 cells” value with Caco-2 Cells [1] was “do not transport L-dopa very well”.
As a reminder, the solubility is the dissolved amount per volume that the medium holds. A lower solubility goes with a poorly soluble substance. As to `N[C@@H](Cc1cc(I)c(Oc2cc(I)c(O)c(I)c2)c(I)c1)C(=O)O` [T4, sodium, levothyroxine sodium], in the data set “physchem”, the solubility turned out to be 6.9 µg/mL.
For `NS(=O)(=O)c1cc2c(cc1Cl)N=CNS2(=O)=O` [chlorothiazide], the permeability entry with Caco-2 Cells [2] (Caco-2) was “low”. Moreover, in the data set with Caco-2 Cells [2], the absorption in humans entry is on record as “low”.
For the compound `NCC1(CC(=O)O)CCCCC1` [gabapentin], in data set [3], the “intersubject CV for the AUC” value was 22.5%.
